# Results as given in paper PMC8465764 (Organic letters, 2021).
# Legend:
# [1] = target: T1, S. aureus FabH (Staphylococcus aureus, UniProt Q8NXE2); assay: FabH radiochemical assay, […]-ketoacyl-ACP formed; format: biochemical
# T1 sequence (Q8NXE2 1-313): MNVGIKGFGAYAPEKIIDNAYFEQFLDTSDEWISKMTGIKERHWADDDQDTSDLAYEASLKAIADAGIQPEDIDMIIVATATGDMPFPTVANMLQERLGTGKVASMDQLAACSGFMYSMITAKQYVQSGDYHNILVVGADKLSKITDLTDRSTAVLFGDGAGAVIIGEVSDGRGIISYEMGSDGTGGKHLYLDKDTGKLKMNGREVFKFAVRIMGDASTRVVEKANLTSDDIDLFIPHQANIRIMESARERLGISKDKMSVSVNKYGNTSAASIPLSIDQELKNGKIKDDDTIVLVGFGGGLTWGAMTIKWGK
# [2] = test system: B. subtilis FabH; assay: as above; format: biochemical, Bacillus subtilis
compound,measurement,setting,value
"C=C(C(=O)O)[C@@H]1O[C@H]1CCCCC=C(C)CCC[C@H](O)CC [compound 2, conocandin B]",IC50,[1],18.8 ± 2.5 µM
same,IC50,[2],53.5 ± 10.4 µM
